Experimental data published in US20070066543A1, “Treatment of tay sachs or sandhoff diseases by enhancing hexosaminidase activity” (The Hospital For Sick Children, priority 2003, published 2007).
Read-outs that look alike come from different tables or passages of the source.

What was measured:
[1] = molecular target: T1, hexosaminidase A/S in ISD cells (Homo sapiens, UniProt P06865); assay: Hexosaminidase activity in infantile Sandhoff (ISD) fibroblasts grown with compound; format: cell-based
T1 construct: endogenous in cells; host or cells: infantile Sandhoff (ISD) patient fibroblasts
T1 sequence (P06865 89-529): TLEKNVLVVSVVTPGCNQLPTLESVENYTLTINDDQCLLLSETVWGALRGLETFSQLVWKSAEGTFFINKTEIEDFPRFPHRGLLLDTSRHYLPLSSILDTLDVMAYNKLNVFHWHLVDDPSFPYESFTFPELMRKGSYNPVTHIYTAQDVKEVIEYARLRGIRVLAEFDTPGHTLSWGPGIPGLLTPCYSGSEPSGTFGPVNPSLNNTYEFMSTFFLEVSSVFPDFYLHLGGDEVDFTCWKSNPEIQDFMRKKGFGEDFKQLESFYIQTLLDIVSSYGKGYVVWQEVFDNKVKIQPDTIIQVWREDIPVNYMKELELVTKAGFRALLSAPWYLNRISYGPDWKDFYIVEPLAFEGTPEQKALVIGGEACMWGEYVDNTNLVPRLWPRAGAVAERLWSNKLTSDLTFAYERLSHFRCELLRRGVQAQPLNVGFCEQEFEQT
T1 sequence (P06865 23-74 limits assumed): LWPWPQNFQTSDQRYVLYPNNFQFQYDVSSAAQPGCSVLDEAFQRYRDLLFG
Description: Cells were washed and lysed in Na Phosphate buffer pH 6.1. The lysates were divided into three equal aliquots (25 μl). To each aliquot, 25 μl of either MUGS ( 3.2 mM) or MUP (3 mg/ml) in 20 mM citrate phosphate buffer pH 4.3 was added. Reactions were incubated at 37° C. for 30-60 min. and stopped with 200 μl of 0.1M MAP buffer. Fluorescence was read using Molecular Devices.
Gemini EM MAX with excitation and emission set to 365 nm and 450 nm, respectively. The activity of Hexosaminidase A/S was measured using MUGS hydrolysis and acid phosphatase activity was measured using methylumbelliferyl phosphate (MUP).

[2] = test system: hexosaminidase A in ASD fibroblasts; assay: Hexosaminidase activity in adult Sandhoff (ASD) fibroblasts grown with compound; format: cell-based, human; conditions: ASD cells
Description: Fibroblast cell lines obtained from homozygous adult onset Tay-Sachs (ATSD), heterozygous adult onset Tay-Sachs (Het ATSD), infantile Tay-Sachs (ITSD and 4917), adult Sandhoff (ASD) and infantile Sandhoff (ISD) were cultured in the presence of various concentrations of ACAS and then examined for hexosaminidase A activity as described above. ACAS treatment gave increased hexosaminidase A activity in ATSD, ASD and ISD cells.

[3] = molecular target: hexosaminidase A in wild type fibroblasts (Homo sapiens, UniProt P06865+P07686); assay: Hexosaminidase A activity (MUGS) in wild type fibroblasts grown with compound; format: cell-based
Sequence of hexosaminidase A in wild type fibroblasts (P07686 315-556 limits assumed, one chain of several): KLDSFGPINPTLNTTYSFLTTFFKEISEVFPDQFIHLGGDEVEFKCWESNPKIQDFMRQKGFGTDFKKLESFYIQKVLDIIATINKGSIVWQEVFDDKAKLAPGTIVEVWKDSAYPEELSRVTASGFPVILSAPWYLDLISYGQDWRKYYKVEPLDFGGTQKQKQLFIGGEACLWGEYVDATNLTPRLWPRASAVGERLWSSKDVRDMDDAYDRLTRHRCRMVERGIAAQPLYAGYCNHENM
Sequence of hexosaminidase A in wild type fibroblasts (P07686 122-311 limits assumed, one chain of several): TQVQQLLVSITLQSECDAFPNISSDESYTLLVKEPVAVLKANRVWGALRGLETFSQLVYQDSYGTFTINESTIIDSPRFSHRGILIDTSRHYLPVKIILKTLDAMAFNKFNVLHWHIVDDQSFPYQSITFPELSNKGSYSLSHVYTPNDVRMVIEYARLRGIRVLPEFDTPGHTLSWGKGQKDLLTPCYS
Sequence of hexosaminidase A in wild type fibroblasts (P07686 50-107 partner limits assumed, one chain of several): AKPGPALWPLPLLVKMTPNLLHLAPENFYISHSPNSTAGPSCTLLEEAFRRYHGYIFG
Description: (§1) The effect of inhibitors on hexosaminidase A activity in fibroblast cells was evaluated using two formats (96- or 6-wells). For the dose response curves and kinetics of increased hexosaminidase A activity in the presence or absence of each compound, cells grown in 96 well tissue culture plates (Falcon) were used. To ensure that equal numbers of cells were seeded in each well, trypsinized cells were diluted to give 50% confluence when plated and 200 μL aliquoted into each well of the plate. Cells grown for longer than 5 days were supplemented with fresh medium. […] Each concentration point of the compounds was evaluated in triplicate.
Following 3-7 days of incubation at 37° C. in the presence or absence of the compound being tested, intracellular hexosaminidase A activity was determined. Medium was removed, cells were washed with PBS twice and lysed using 60 μL of 10 mM citrate phosphate buffer pH 4.5 (CP buffer) containing 0.5% human serum albumin and 0.5% Triton X-100. Cells were solubilized at room temperature for 15 min, and subsequently 25 μL of lysate was transferred to a new 96 well plate. Hexosaminidase A activity in lysates was measured using 25 μL of 3.2 mM MUGS in CP buffer with incubation at 37° for 1 hr. Afterwards, 250 μL of 0.1M 2-amino-2-methyl-1-propanol (pH 10.5) was used to stop the reaction and increase the fluorescence of the methyl umbelliferyl product, Fluorescence was read with a Perkin-Elmer LS50B Luminescence Spectrometer equipped with a sipper and using excitation wavelength of 365 nm and emission wavelength of 450 nm. For dose response and kinetic experiments, the relative increase in hexosaminidase A activity was expressed as the average fluorescence reading from three or four wells, with cells grown in the presence of compound divided by the average fluorescent reading from a minimum of four wells, with cells grown in the absence any compound. To control for plate to plate variability, control (untreated) cells were included with each 96 well plate.
Subsequently, hexosaminidase A activity was assayed using a MUGS assay as described above. […]

[4] = test system: hexosaminidase A in ITSD fibroblasts; assay: MUGS hydrolysis in infantile Tay-Sachs (ITSD) fibroblasts grown with compound; format: cell-based, human
Description: Fibroblast cell lines from an unaffected patient (WT, 4212), from a patient diagnosed with the chronic (adult) form of TSD and homozygous for the mutation G269S (ATSD, 1766 or 17662) and from a fetus with the acute (infantile) form of TSD (ITSD, 2317) were grown in a-MEM (Invitrogen) supplemented with 10% FCS, and antibiotics Pen/Strep (Invitrogen) at 37° C. in a CO2 incubator. 17662: A fibroblast cell line (17662) from an adult-onset Tay-Sachs patient homozygous for the most common point mutation associated with the disease, Gly 269 Ser in the α subunit of hexosaminidase A, was obtained from Department of Pediatrics, University of Saskatoon.
The effect of inhibitors on hexosaminidase A activity in fibroblast cells was evaluated using two formats (96- or 6-wells). For the dose response curves and kinetics of increased hexosaminidase A activity in the presence or absence of each compound, cells grown in 96 well tissue culture plates (Falcon) were used. […] Each concentration point of the compounds was evaluated in triplicate.
Following 3-7 days of incubation at 37° C. in the presence or absence of the compound being tested, intracellular hexosaminidase A activity was determined. […] Hexosaminidase A activity in lysates was measured using 25 μL of 3.2 mM MUGS in CP buffer with incubation at 37° for 1 hr. Afterwards, 250 μL of 0.1M 2-amino-2-methyl-1-propanol (pH 10.5) was used to stop the reaction and increase the fluorescence of the methyl umbelliferyl product, Fluorescence was read with a Perkin-Elmer LS50B Luminescence Spectrometer equipped with a sipper and using excitation wavelength of 365 nm and emission wavelength of 450 nm. For dose response and kinetic experiments, the relative increase in hexosaminidase A activity was expressed as the average fluorescence reading from three or four wells, with cells grown in the presence of compound divided by the average fluorescent reading from a minimum of four wells, with cells grown in the absence any compound. […]

[5] = molecular target: T2, hexosaminidase from the bacterial species Streptomyces plicatus (Sp. Hex.) (Streptomyces plicatus, UniProt O85361); conditions: value carries reference superscript 56; cited from earlier work
T2 sequence (O85361 1-506): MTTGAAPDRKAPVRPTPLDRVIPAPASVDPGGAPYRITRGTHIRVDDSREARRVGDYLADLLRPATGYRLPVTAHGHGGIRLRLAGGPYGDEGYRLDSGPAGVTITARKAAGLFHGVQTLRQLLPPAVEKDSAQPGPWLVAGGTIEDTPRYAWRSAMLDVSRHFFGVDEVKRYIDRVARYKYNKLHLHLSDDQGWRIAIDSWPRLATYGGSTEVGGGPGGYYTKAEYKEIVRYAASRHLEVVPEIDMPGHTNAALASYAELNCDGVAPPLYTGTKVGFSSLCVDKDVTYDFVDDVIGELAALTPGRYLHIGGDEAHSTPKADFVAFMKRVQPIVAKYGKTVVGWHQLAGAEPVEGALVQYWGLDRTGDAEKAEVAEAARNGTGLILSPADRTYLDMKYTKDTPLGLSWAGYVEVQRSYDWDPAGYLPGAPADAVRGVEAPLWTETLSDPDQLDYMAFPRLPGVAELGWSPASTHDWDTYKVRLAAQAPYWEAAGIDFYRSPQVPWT

human hexosaminidase A = human hexosaminidase A (Homo sapiens, UniProt P06865+P07686); assay: Ki on human hexosaminidase A; format: biochemical
Sequence of human hexosaminidase A (P07686 315-556 limits assumed, one chain of several): as the sequence (P07686 315-556 limits assumed, one chain of several) above
Sequence of human hexosaminidase A (P07686 122-311 limits assumed, one chain of several): as the sequence (P07686 122-311 limits assumed, one chain of several) above
Sequence of human hexosaminidase A (P07686 50-107 partner limits assumed, one chain of several): as the sequence (P07686 50-107 partner limits assumed, one chain of several) above

[6] = molecular target: T2, hexosaminidase from the bacterial species Streptomyces plicatus (Sp. Hex.); assay: Ki on bacterial hexosaminidase (MUG assay); format: biochemical
adult mice = assay: Toxicity studies in adult mice; format: in vivo
hexosaminidase B [7] = molecular target: T3, hexosaminidase B (Homo sapiens, UniProt P07686); assay: Heat denaturation of hexosaminidase B at 60° C.; format: biochemical; conditions: 60° C. up to 40 minutes, 2.4 μm NAG-thiazoline, MUG
T3 construct: from tissue; host or cells: human placenta
T3 sequence (P07686 315-556 limits assumed): as the sequence (P07686 315-556 limits assumed, one chain of several) above
T3 sequence (P07686 122-311 limits assumed): as the sequence (P07686 122-311 limits assumed, one chain of several) above
T3 sequence (P07686 50-107 partner limits assumed): as the sequence (P07686 50-107 partner limits assumed, one chain of several) above
Description: The effect of NAG-thiazoline on heat denaturation of human hexosaminidase B was also examined. The enzyme was incubated at 60° C. for up to 40 minutes in the presence or absence of 2.4 μm NAG-thiazoline and its activity was then assayed as described above using MUG as substrate.

hexosaminidase A plus B = assay: Brain hexosaminidase A plus B in NGT-treated mice; format: in vivo; conditions: 40 mg s.c. every 4 days for 15 days
β-mannosidase = assay: Serum/plasma β-mannosidase in NGT-treated mice (MUM); format: in vivo
Description: (§2) Plasma levels of hexosaminidases A plus B and hexosaminidase A alone were measured by the fluorescent assay described above, using MUG and MUGS as substrates respectively. β-mannosidase was similarly assayed using 4-methylumbelliferyl-β-D-mannopyranoside (MUM) as substrate.

[8] = test system: hexosaminidases A plus B (total Hex); assay: Plasma hexosaminidase A plus B in NGT-treated mice (MUG); format: in vivo; conditions: CD1 mice, 10, 40 or 100 mg i.p., 2 days later
Description: as §2

hexosaminidase B [9] = molecular target: T3, hexosaminidase B; assay: Denaturation of hexosaminidase B by guanidine hydrochloride; format: biochemical
[10] = test system: fibroblasts from a chronic TSD patient; conditions: human, 5 days
Description: as §1

[11] = adult male CD1 mice, 40 mg/mouse i.v. or s.c. every four days up to 30 days

CC(=O)NC1CN2CCC(O)C2C(O)C1O (stereo not drawn) [ACAS, 6-acetamido-6-deoxy-castanospermine]
hexosaminidase A activity ([1]; various concentrations of ACAS): increased | hexosaminidase A activity ([2]; various concentrations of ACAS): increased | hexosaminidase A activity ([3]; WT fibroblasts, all concentrations): decreased | hexosaminidase A activity ([3]; wild type cells, ACAS 4 days, MUGS): increased | hexosaminidase A activity ([4]; ITSD fibroblasts, all concentrations): decreased | hexosaminidase A activity ([4]; infantile Tay-Sachs cells, ACAS 4 days, MUGS): not

CC1=NC2[C@@H](O)[C@@H](O)C(CO)O[C@H]2S1 (stereo partly drawn) [NAGal-thiazoline (2.6), N-acetyl galactosamine-thiazoline]
Ki [5]: 100 µM | mode of inhibition of hexosaminidase A (human hexosaminidase A): competitive inhibitors

CC(=O)NC1NCCC(O)C1O (stereo not drawn) [XylNAc-isofagomine•HCI (2.7), XylNAc-isofagomine•HCI]
Ki (human hexosaminidase A; read-out: Ki Hex A): 90 µM | Ki [6]: 38 µM

CC1=NC2[C@@H](O)[C@H](O)C(CO)O[C@H]2S1 (stereo partly drawn) [NGT, N-acetylglucosamine-thiazoline]
acute or sub-acute toxicity (adult mice; [11]): No acute or sub-acute toxicity was observed | histological examination of autopsied tissues (adult mice; [11]): no changes | signs of toxicity (adult mice; adult mice, 10, 40 or 100 mg i.p.): None of the mice treated with inhibitors showed any signs of toxicity | hexosaminidase B activity after heat denaturation versus control (hexosaminidase B [7]): preserved greater hexosaminidase B activity than seen in the control | activity of Hexosaminidase A/S (MUGS) ([1]; 2 days, varying concentrations): increased | hexosaminidase S activity ([1]; NGT): increased | Ki [5]: 20 µM | mode of inhibition of hexosaminidase A (human hexosaminidase A): competitive inhibitors | brain hexosaminidase A plus B (hexosaminidase A plus B): essentially unchanged | plasma β-mannosidase level (β-mannosidase; CD1 mice, 10, 40 or 100 mg i.p., 2 days later): unchanged | serum βD mannosidase levels versus control (β-mannosidase; mice, 10, 40 or 100 mg i.p., 3 to 4 days after treatment): generally the same | hexosaminidase A and S activity ([2]; NGT): increased | plasma hexosaminidase A plus B (total Hex) level [8]: unchanged | increase in hexosaminidase A activity ([3]; WT fibroblasts, NGT 3 mM): two fold | MUGS hydrolysis with increasing concentration ([4]; ITSD cells): decline | protection of hexosaminidase B against denaturation by guanidine hydrochloride (hexosaminidase B [9]): protect

CC(=O)N[C@@H]1[C@@H](O)[C@@H](O)[C@@H](CO)O[C@H]1O [GalNAc, N-acetyl-β-D-galactosamine]
concentration at which cell lysis occurred [10]: > 200000 µM
